Results taken from BindingDB's records for doi:10.1016/s0960-894x(00)00080-9 (Granada, 2000).

Molecular target: Choline kinase (Saccharomyces cerevisiae) (UniProt P20485)
Assay: Compound was tested […] for inhibition against purified choline kinase obtained from yeast

Sequence of Choline kinase (Saccharomyces cerevisiae) (P20485 whole entry, looked up): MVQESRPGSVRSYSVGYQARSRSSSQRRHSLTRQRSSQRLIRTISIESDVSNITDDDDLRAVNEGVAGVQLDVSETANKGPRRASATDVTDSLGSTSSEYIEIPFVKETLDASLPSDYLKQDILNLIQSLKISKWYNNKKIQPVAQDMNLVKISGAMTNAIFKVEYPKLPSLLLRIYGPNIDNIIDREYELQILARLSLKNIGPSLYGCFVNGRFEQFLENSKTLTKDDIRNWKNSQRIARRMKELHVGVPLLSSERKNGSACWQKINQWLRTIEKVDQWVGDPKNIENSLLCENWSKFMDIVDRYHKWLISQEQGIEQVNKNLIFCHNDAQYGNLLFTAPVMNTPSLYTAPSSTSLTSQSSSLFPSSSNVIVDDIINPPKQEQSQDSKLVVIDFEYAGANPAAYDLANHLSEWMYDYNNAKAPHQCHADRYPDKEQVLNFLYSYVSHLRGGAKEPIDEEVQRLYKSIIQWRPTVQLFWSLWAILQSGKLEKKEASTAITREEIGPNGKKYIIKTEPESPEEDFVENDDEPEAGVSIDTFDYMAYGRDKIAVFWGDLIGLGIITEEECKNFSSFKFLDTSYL

## c1cc(Cn2ccc(=[N+]3CCCCC3)cc2)ccc1CCc1ccc(Cn2ccc(=[N+]3CCCCC3)cc2)cc1 [1,2-di[4-(4-hexahydro-1-pyridinyl-1-pyridiniumylmethyl)phenyl]ethane dibromide]
  IC50: 9.6 µM

## Cc1cc[n+](Cc2ccc(CCc3ccc(C[n+]4ccc(C)cc4)cc3)cc2)cc1 [1,2-di[4-(4-methyl-1-pyridiniumylmethyl)phenyl]ethane dibromide]
  IC50: 100 µM

## c1cc(Cn2ccc(=[N+]3CCCC3)cc2)ccc1CCc1ccc(Cn2ccc(=[N+]3CCCC3)cc2)cc1 [1,2-di[4-(4-tetrahydro-1H-1-pyrrolyl-1-pyridiniumylmethyl)phenyl]ethane dibromide]
  IC50: 20 µM

## c1cc(Cn2ccc(=[N+]3CCCCCC3)cc2)ccc1CCc1ccc(Cn2ccc(=[N+]3CCCCCC3)cc2)cc1 [1,2-di{4-[4-(1-azepanyl)-1-pyridiniumylmethyl]phenyl}ethane dibromide]
  IC50: 15 µM

## N=c1ccn(Cc2ccc(CCc3ccc(Cn4ccc(=N)cc4)cc3)cc2)cc1 [1-{4-[4-(4-amino-1-pyridiniumylmethyl)phenethyl]benzyl}-4-pyridiniumamine dibromide]
  IC50: 23 µM

## O=C(O)c1cc[n+](Cc2ccc(CCc3ccc(C[n+]4ccc(C(=O)O)cc4)cc3)cc2)cc1 [1-{4-[4-(4-carboxy-1-pyridiniumylmethyl)phenethyl]benzyl}-4-pyridiniumcarboxylic acid dibromide]
  IC50: 137 µM

## N#Cc1cc[n+](Cc2ccc(CCc3ccc(C[n+]4ccc(C#N)cc4)cc3)cc2)cc1 [1-{4-[4-(4-cyano-1-pyridiniumylmethyl)phenethyl]benzyl}-4-pyridiniumcarbonitrile dibromide]
  IC50: > 1000 µM

## OCc1cc[n+](Cc2ccc(CCc3ccc(C[n+]4ccc(CO)cc4)cc3)cc2)cc1 [1-{4-[4-(4-hydroxymethyl-1-pyridiniumylmethyl)phenethyl]benzyl}-4-pyridiniumylmethanol dibromide]
  IC50: 100 µM

## C=CC[N+](CC=C)=c1ccn(Cc2ccc(CCc3ccc(Cn4ccc(=[N+](CC=C)CC=C)cc4)cc3)cc2)cc1 [4N,4N-diallyl-1-{4-[4-(4-diallylamino-1-pyridiniumylmethyl)phenethyl]benzyl}-4-pyridiniumamine dibromide]
  IC50: 17 µM

## C[N+](C)=c1ccn(Cc2ccc(CCc3ccc(Cn4ccc(=[N+](C)C)cc4)cc3)cc2)cc1 [4N,4N-dimethyl-1-{4-[4-(4-dimethylamino-1-pyridiniumylmethyl)phenethyl]benzyl}-4-pyridiniumamine dibromide]
  IC50: 17 µM
